# In ChEMBL document CHEMBL1148617, “Design, synthesis, and structure-activity relationships of 1-,3-,8-, and 9-substituted-9-deazaxanthines at the human A2B adenosine receptor” (J Med Chem, 2006):
# Columns and labels:
# Adenosine receptor A2a = Adenosine receptor A2a (Homo sapiens, UniProt P29274); assay: Displacement of [3H]ZM-241385 from recombinant human adenosine A2A receptor expressed in HeLa cells at 0.1 uM
# [1] = target: T1, Adenosine receptor A2b (Homo sapiens) (UniProt P29275); assay: Displacement of [3H]DPCPX from recombinant human adenosine A2B receptor expressed in HEK293 cells at 0.01 uM
# T1 sequence (whole entry): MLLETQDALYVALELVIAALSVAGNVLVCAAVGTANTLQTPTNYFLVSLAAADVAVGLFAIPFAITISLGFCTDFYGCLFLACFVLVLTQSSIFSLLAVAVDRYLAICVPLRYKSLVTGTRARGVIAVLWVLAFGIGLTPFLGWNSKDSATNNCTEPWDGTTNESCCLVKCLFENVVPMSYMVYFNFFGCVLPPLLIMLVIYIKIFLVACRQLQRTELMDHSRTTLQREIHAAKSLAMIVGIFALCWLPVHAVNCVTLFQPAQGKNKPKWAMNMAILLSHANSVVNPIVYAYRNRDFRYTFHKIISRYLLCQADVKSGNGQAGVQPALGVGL
# [2] = target: T1, Adenosine receptor A2b (Homo sapiens); assay: Displacement of [3H]DPCPX from recombinant human adenosine A2B receptor expressed in HEK293 cells at 0.1 uM; assay type: cell-based
# Adenosine receptor A2a, sequence (P29274 whole entry): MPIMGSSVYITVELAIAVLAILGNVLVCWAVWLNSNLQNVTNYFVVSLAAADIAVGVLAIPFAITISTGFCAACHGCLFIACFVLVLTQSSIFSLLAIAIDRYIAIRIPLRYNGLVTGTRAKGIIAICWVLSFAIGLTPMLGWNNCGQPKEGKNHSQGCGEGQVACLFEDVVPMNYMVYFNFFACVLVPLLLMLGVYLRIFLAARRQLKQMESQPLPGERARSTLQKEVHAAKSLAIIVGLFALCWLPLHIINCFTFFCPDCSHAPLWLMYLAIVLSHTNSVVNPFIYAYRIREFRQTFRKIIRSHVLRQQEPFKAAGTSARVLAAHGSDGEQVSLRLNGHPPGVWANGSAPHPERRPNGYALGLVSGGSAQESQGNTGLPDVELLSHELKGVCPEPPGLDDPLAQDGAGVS
Structure (SMILES),inhibition (Adenosine receptor A2a),inhibition [1],inhibition [2]
Cn1c(=O)c2[nH]c(-c3ccc(OC(C)(C)C(=O)O)cc3)cc2n(C)c1=O,2%,3%,14%
CCCn1c(=O)c2[nH]c(-c3ccc(OCC(=O)O)cc3OC)cc2n(CCC)c1=O,10%,–,8%
CCCn1c(=O)c2[nH]c(-c3ccc(OCC(=O)OCC)cc3OC)cc2n(CCC)c1=O,10%,–,1%
CC(Oc1ccc(-c2cc3c([nH]2)c(=O)n(C)c(=O)n3C)cc1)C(=O)O (stereo not drawn),9%,5%,34%
CCCn1c(=O)c2[nH]c(-c3ccc(OCC(=O)Nc4ncccc4O)cc3)cc2n(C)c1=O,22%,31%,71%
CCCn1c(=O)c2nc(-c3ccc(OCC(N)=O)cc3)[nH]c2n(CCC)c1=O,10%,11%,56%
CCCn1c(=O)c2[nH]c(-c3ccc(OCC(=O)Nc4ncccc4C)cc3)cc2n(C)c1=O,26%,25%,68%
O=C(COc1ccc(-c2cc3c([nH]2)c(=O)n(CC(F)(F)F)c(=O)n3CC(F)(F)F)cc1)Nc1ccc(F)cc1,18%,22%,68%
CCCn1c(=O)c2[nH]c(-c3ccc(N(C=O)CC(=O)Nc4ccc(F)cc4)cc3)cc2n(CCC)c1=O,89%,24%,93%
COCCCn1c(=O)c2[nH]c(-c3ccc(OCC(=O)O)cc3)cc2n(CCCOC)c1=O,9%,10%,12%
CCCn1c(=O)c2[nH]c(-c3ccc(OCC(=O)Nc4ccc(Br)cc4)cc3Cl)cc2n(CCC)c1=O,31%,17%,79%
Cn1c(=O)c2[nH]c(-c3ccc(OCC(=O)NCc4ccncc4)cc3)cc2n(C)c1=O,37%,5%,51%
CCCn1c(=O)c2[nH]c(-c3ccc(OCC(=O)O)cc3Cl)cc2n(CCC)c1=O,6%,14%,10%
O=C(COc1ccc(-c2cc3c([nH]2)c(=O)n(CC(F)(F)F)c(=O)n3CC(F)(F)F)cc1)Nc1ccc(Br)cc1,11%,29%,79%
CCCn1c(=O)c2[nH]c(-c3ccc(OCC(=O)Nc4ccc(Br)cc4)cc3OC)cc2n(CCC)c1=O,39%,18%,64%
O=C(O)COc1ccc(-c2cc3c([nH]2)c(=O)n(CC2CC2)c(=O)n3CC2CC2)cc1,40%,27%,69%

Structure (SMILES),inhibition (Adenosine receptor A2a),inhibition [1],inhibition [2]
Cn1c(=O)c2[nH]c(-c3ccc(OCC(=O)N[C@H]4C(O)O[C@H](CO)[C@@H](O)[C@@H]4O)cc3)cc2n(C)c1=O (stereo partly drawn),13%,7%,33%
COc1cc(NC(=O)COc2ccc(-c3cc4c([nH]3)c(=O)n(C)c(=O)n4C)cc2)nc(OC)n1,14%,12%,50%
Cn1c(=O)c2[nH]c(-c3ccc(OCC(=O)O)cc3)cc2n(CCN2CCOCC2)c1=O,11%,–,18%
COCCCn1c(=O)c2[nH]c(-c3ccc(OCC(=O)Nc4ccc(Br)cc4)cc3)cc2n(CCCOC)c1=O,30%,45%,85%
Cn1c(=O)c2[nH]c(-c3ccc(OCC(=O)O)cc3)c(Br)c2n(C)c1=O,4%,–,24%
Cn1c(=O)c2[nH]c(-c3cccc(OCC(=O)O)c3)cc2n(C)c1=O,15%,–,23%
Cn1c(=O)c2[nH]c(-c3ccc(OCC(=O)Nc4ccc(F)cc4)cc3)cc2n(CCN2CCOCC2)c1=O,10%,16%,27%
Cn1c(=O)c2[nH]c(-c3ccc(OCC(=O)Nc4cnccn4)cc3)cc2n(C)c1=O,20%,11%,44%
CCCn1c(=O)c2[nH]c(-c3ccc(OCC(=O)Nc4ccc(F)cc4)cc3OC)cc2n(CCC)c1=O,43%,16%,27%
CCOC(=O)c1ccc(NC(=O)COc2ccc(-c3cc4c([nH]3)c(=O)n(C)c(=O)n4C)cc2OC)cc1,0%,10%,47%
CCCn1c(=O)n(C)c(=O)c2[nH]c(-c3ccc(OCC(=O)Nc4ccc5c(c4)CCC5=O)cc3)cc21,26%,12%,50%
COCCCn1c(=O)c2[nH]c(-c3ccc(OCC(=O)Nc4ccc(F)cc4)cc3)cc2n(CCCOC)c1=O,20%,24%,68%
O=C(COc1ccc(-c2cc3c([nH]2)c(=O)n(CC2CC2)c(=O)n3CC2CC2)cc1)Nc1ccc(F)cc1,98%,57%,95%
O=C(COc1ccc(-c2cc3c([nH]2)c(=O)n(CC2CC2)c(=O)n3CC2CC2)cc1)Nc1ccc(Br)cc1,89%,43%,94%
O=C(COc1ccc(-c2cc3c([nH]2)c(=O)n(CC(F)(F)F)c(=O)n3CC(F)(F)F)cc1)Nc1ccccc1,4%,15%,57%
CC(C)Cn1c(=O)c2[nH]c(-c3ccc(OCC(=O)O)cc3)cc2n(C)c1=O,1%,–,28%

# Further lines, results first:
inhibition (Adenosine receptor A2a),inhibition [1],inhibition [2],Structure (SMILES)
18%,14%,70%,CCCn1c(=O)c2[nH]c(-c3ccc(OCC(=O)N[C@H](C)[C@H](O)c4ccccc4)cc3)cc2n(CCC)c1=O
21%,9%,55%,CCCn1c(=O)c2[nH]c(-c3ccc(OCC(=O)OCC)cc3)cc2n(CCC)c1=O
6%,12%,26%,CCCn1c(=O)c2[nH]c(-c3ccc(OC(C)(C)C(=O)O)cc3)cc2n(CCC)c1=O
73%,29%,89%,CCCn1c(=O)c2[nH]c(-c3ccc(OCC(=O)Nc4cc(F)ccc4O)cc3)cc2n(CCC)c1=O
45%,20%,68%,CCCn1c(=O)c2[nH]c(-c3ccc(OCC(=O)Nc4cccc(C)n4)cc3)cc2n(CCC)c1=O
65%,32%,84%,CCCn1c(=O)c2[nH]c(-c3ccc(OC(C(=O)Nc4ccc(F)cc4)c4ccccc4)cc3)cc2n(CCC)c1=O (stereo not drawn)
19%,10%,21%,CCCn1c(=O)n(C)c(=O)c2[nH]c(-c3ccc(OCC(=O)NCc4ccccc4)cc3)cc21
54%,49%,87%,CCCn1c(=O)c2[nH]c(-c3ccc(OC(C)(C)C(=O)Nc4ccc(Br)cc4)cc3)cc2n(CCC)c1=O
3%,27%,49%,CCCn1c(=O)c2[nH]c(-c3ccc(OCC(=O)NCc4ccncc4)cc3)cc2n(C)c1=O
5%,10%,47%,CCCn1c(=O)c2[nH]c(-c3ccc(OC(C(=O)O)c4ccccc4)cc3)cc2n(CCC)c1=O (stereo not drawn)
35%,3%,17%,CCCn1c(=O)c2[nH]c(-c3ccc(OCC(=O)Nc4ccccc4)cc3OC)cc2n(CCC)c1=O
2%,15%,57%,CC(C)Cn1c(=O)c2[nH]c(-c3ccc(OCC(=O)Nc4ccccc4)cc3)cc2n(C)c1=O
12%,24%,73%,CCCn1c(=O)c2[nH]c(-c3ccc(OCC(=O)Nc4ccc(C)cn4)cc3)cc2n(C)c1=O
48%,19%,83%,CCCn1c(=O)c2[nH]c(-c3ccc(OCC(=O)Nc4cccnc4)cc3)cc2n(CCC)c1=O
19%,14%,85%,CCCn1c(=O)c2[nH]c(-c3ccc(OCC(=O)Nc4ccc(C(F)(F)F)cc4)cc3)cc2n(CCC)c1=O
34%,10%,68%,CCCn1c(=O)c2[nH]c(-c3ccc(OCC(=O)Nc4cnccn4)cc3)cc2n(CCC)c1=O
53%,30%,77%,CCCn1c(=O)c2[nH]c(-c3ccc(OCC(=O)NC(CO)c4ccccc4)cc3)cc2n(CCC)c1=O (stereo not drawn)
75%,25%,74%,CCCn1c(=O)c2[nH]c(-c3ccc(OCC(=O)NC(CCl)c4ccccc4)cc3)cc2n(CCC)c1=O (stereo not drawn)
80%,23%,88%,CCCn1c(=O)c2[nH]c(-c3ccc(OCC(=O)Nc4ccc(F)cc4O)cc3)cc2n(CCC)c1=O
39%,29%,58%,CCCn1c(=O)c2[nH]c(-c3ccc(OCC(=O)NC(C(=O)OC)c4ccccc4)cc3)cc2n(CCC)c1=O (stereo not drawn)
61%,10%,46%,CCCn1c(=O)c2[nH]c(-c3ccc(N(C=O)CC(=O)Nc4ccccc4)cc3)cc2n(CCC)c1=O
91%,–,84%,CCCn1c(=O)n(C)c(=O)c2[nH]c(-c3ccc(OCC(=O)Nc4ccc(Br)cc4)cc3)cc21
75%,44%,89%,CCCn1c(=O)c2[nH]c(-c3ccc(OC(C(=O)Nc4ccccc4)c4ccccc4)cc3)cc2n(CCC)c1=O (stereo not drawn)
